Patent publication EP1028734B1, “USE OF SPECIFIC STEADY-STATE R-TYPE CALCIUM CHANNEL BLOCKERS” (priority 1997, dated 1999)
Entries after “also recorded” stand apart in the source; their conditions may differ.

Tests used:
R-type Ca^2+ channel = test: confocal Fluo-3 3-dimension measurement of cytosolic [Ca]c and nuclear [Ca]n; assay type: cell-based, chick, human
[1] = test system: TTX-sensitive fast Na^+ current; test: whole-cell voltage clamp, TTX-sensitive fast Na+ current in single heart cell (MV8608); assay type: cell-based; conditions: 10^-11M to 10^-7M, n=5
Procedure: (§1) Single cells of different types in culture were prepared from biopsies of human, chick and rabbit. Known and accepted methods for the isolation of fast Na^+ current, T, L and R-type Ca^2+ channels as well as delayed outward K^+ current were used (Bkaily 1994, supra).
(§2) The compounds to be tested are added to the appropriate extracellular solution after recording a stable ionic current or normal steady-state level of [Ca]n and [Ca]n The effect of different concentrations of compounds are tested on the different type of current and [Ca]i of the different cell types. The effect of each concentration of the compounds in function of the time of exposure are then determined. Once the steady-state effect is reached, the second concentration is added, etc.
In one series of experiments (n=5), the effect of different concentrations of MV8608 (10^-11M to 10^-7M) on the TTX-sensitive fast Na^+ current were tested using the whole-cell voltage clamp technique and experimental conditions reported elsewhere (Bkaily et al., 1988, supra; 1993, supra).

T-type Ca^2+ current = test: whole-cell voltage clamp, T-type Ca2+ current in heart cells; assay type: cell-based; conditions: 10^-9M to 10^-7M, n=7
Procedure: as §1, §2
In another series of experiments (n=7), the effect of different concentrations of MV8608 were tested on the T-type Ca^2+ current (lCa) using the whole-cell voltage clamp technique and classical experimental conditions described elsewhere by the inventors (Bkaily G. et al., 1991, supra; 1992, supra; 1993, supra). […] As it can be seen in that figure, the inset effect of MV8608 in T-type ICa is immediate.

mouse paw oedema = assay type: in vivo, mice; conditions: i.p.
Procedure: In this experiment (N =5 to 6 animals per group), the anti-oedemagenic action of compounds MV 8608 and MV 8612 against bradykinin and several mediators which are reported to be involved in the inflammatory processes, was evaluated. The procedures used to perform these experiments have been reported elsewhere (Neves et al., 1993, Eur. J. Pharmacol. 243:213-219; Campos et al., 1995, Br. J. Pharmacol. 114:1005-1013; Campos et al., 1996, Br. J. Pharmacol. 117:793-798; Eur. J. Pharmacol. 316:227-286). […] As reported previously, in rats treated […] prior to a systemic injection of LPS, both B1 and B2 kinin selective agonists caused marked oedema formation (Figures 37C and D (Campos et al., 1996, supra)).
When tested in mice, MV 8612 (40 to 160 nmol/paw) inhibited bradykinin and carrageenan-induced paw oedema in mice in a dose-dependent manner (Figures 46A and B).

[2] = test system: double-perfused mesenteric bed of the rat; test: double-perfused mesenteric bed of the rat
Excerpt: The inhibitory properties of MV8608 are specific for PAF as the response to ACh (arterial) and Angll (venous) are unaffected by the pregnane-containing moiety.

L-type Ca^2+ channel = test: whole-cell voltage clamp, L-type ICa of heart cells of chick embryos; assay type: cell-based
Procedure: as §1, §2
In another series of experiments (n=5), the effect of different concentrations of MV8608 (10^-11 to 10^-6M) were tested on the L-type ICa of heart cells of chick embryos using the whole-cell and experimental conditions and protocols described elsewhere by the inventors (Bkaily G. et al., 1993, supra). As for the T-type ICa' the L-type ICa was not affected by 10^-11 to 10^-10M MV8608.
In another series of experiments (n=4), we tested the effect of MV8612 on the L-type Ca^2+ current (ICa) in chick embryonic heart cells using the whole-cell voltage clamp technique referred to above. Superfusion with 10^-9M of MV8612 decreased ICa amplitude by 10% and increasing the concentration of the compound up to 10^-8M further decreased the current amplitude by 25%. Higher concentration of MV8612 (10^-7M) decreased the ICa amplitude by 62%.

murine model of pleurisy = assay type: in vivo, mice
Procedure: (§3) To assess further the anti-inflammatory action of MV 8612 and MV 8608, their effects against the inflammatory responses caused by several mediators of inflammation in a murine model of pleurisy were tested (Saleh et al., 1996, Br. J. Pharmacol 118:811-819). In addition, both compounds were tested against the increase of vascular permeability caused by bradykinin in the rat skin (Neves et al., 1993b, Phytotherapy Research. 7:356-362).

rat uterus = conditions: Calixto et al., 1987; cited from earlier work
[3] = bradykinin-induced skin vascular permeability in rats; assay type: in vivo, rat
Procedure: as §3

human lymphocyte = human lymphocyte proliferation in vitro; assay type: cell-based; conditions: MV 8612, MV 8608 14.5 to 116 M
Procedure: In a separate series of experiments, compounds MV 8612 and MV 8608 were tested to analyze whether they interfered with human lymphocyte proliferation "in vitro". These experiments were carried out as reported previously (Moraes et al., 1996, Eur. J. Pharmacol. 312:333-339).

[4] = test system: human aortic vascular smooth muscle cell line; test: spontaneous proliferation of human aortic vascular smooth muscle cell line; assay type: cell-based; conditions: MV8608 10^-8M, MV8612 10^-8M, nifedipine 10^-7M, Figure 28
[5] = MV 8612 30 and 60, MV 8608 30, i.p.

Q: Which results are given for “(15R, 16R, 20S)-14, 16:15,20:16,21-triepoxi-15,16-seco 14β, 17α-pregn-5-ene-3β, 15-diol [MV8608]”?
A: sustained increase of [Ca]c and [Ca]n induced with high concentration of PAF (10^-7M) (R-type Ca^2+ channel; 10^-6M of compound, back to the control level, Figure 29B): significantly decrease; cytosolic and nuclear Ca^2+ sustained overload induced by 30mM KCl and PAF (R-type Ca^2+ channel; 10^-7M of compound, nifedipine present): blocked both the cytosolic and nuclear Ca^2+ sustained overload; prevention of stimulation of the R-type Ca^2+ channel by sustained depolarization (R-type Ca^2+ channel; 10^-8 M and 10^-7 M, dose-dependent): prevented; prevention of high PAF (10^-7 M) action (R-type Ca^2+ channel; 10^-9M of compound): succeeded in preventing; sustained depolarization induced sustained increase of [Ca]c and [Ca]n (R-type Ca^2+ channel; heart cells, Figure 29 panel A): blocked completely; effect on the TTX-sensitive fast Na^+ current [1]: no effect; T-type ICa amplitude (T-type Ca^2+ current): no effect; also recorded: relative weak depressing effect; paw oedema induced by histamine (mouse paw oedema): dose-related inhibition; paw oedema induced by serotonin (mouse paw oedema): dose-related inhibition; bradykinin-induced paw oedema (mouse paw oedema; 30 min prior): unaffected; response to ACh (arterial) and AngII (venous) [2]: unaffected; PAF induced arterial vasodilatation and venconstriction ([2]; 1 µM, Figure 24): blocked; PAF-induced responses ([2]; concentration series): concentration-dependent inhibition; ICa amplitude (L-type), further change (L-type Ca^2+ channel; 5 x 10^-7M): a further slight increase; decrease of ICa amplitude (L-type) (L-type Ca^2+ channel; 10^-9M): 10%; L-type ICa (L-type Ca^2+ channel; 10^-11 to 10^-10M): not affected; mononuclear cells influx, intrapleural PAF (murine model of pleurisy; 30, i.p.): antagonised significantly; plasma extravasation, intrapleural PAF (murine model of pleurisy; 30, i.p.): antagonised significantly; neutrophils cells, intrapleural carrageenan (murine model of pleurisy; [5]): inhibited significantly; total cells, intrapleural carrageenan (murine model of pleurisy; [5]): inhibited significantly; contraction of rat uterus induced by BK (rat uterus): selective in its ability to inhibit; increase of vascular permeability caused by bradykinin in the rat skin [3]: antagonised in a dose-related manner; human lymphocyte proliferation (human lymphocyte): graded inhibition; spontaneous proliferation [4]: significantly decreased
